{
  "source": "patent US20230085307A1",
  "about": "“PYRIDAZINONE COMPOUND AND HERBICIDE” (NISSAN CHEMICAL CORPORATION, priority 2019, published 2023)",
  "key": {"barnyard grass [1]": {"tested_on": "barnyard grass", "assay": "Test Example 5: herbicidal effect by foliage application, plastic box (Table 20, symbol H)", "format": "in vivo, barnyard grass (Echinochloa crus-galli)", "conditions": "foliage application, 320 g/ha, three weeks after application", "in_short": "(§1)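 Foliar spray test: emulsion formulation diluted in water to a set application rate, sprayed onto 14-day-old plants raised in diluvial soil at 25° C to 30° C under glass. Both herbicidal effect and crop effect rated visually three weeks later.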"}, "chickweed": {"tested_on": "chickweed", "assay": "Test Example 5: herbicidal effect by foliage application, plastic box (Table 20, symbol P)", "format": "in vivo, common chickweed (Stellaria media)", "conditions": "foliage application, 320 g/ha, three weeks after application", "in_short": "as §1"}, "blackgrass": {"tested_on": "blackgrass", "assay": "Test Example 5: herbicidal effect by foliage application, plastic box (Table 20, symbol J)", "format": "in vivo, blackgrass (Alopecurus myosuroides)", "conditions": "foliage application, 320 g/ha, three weeks after application", "in_short": "as §1"}, "velvetleaf": {"tested_on": "velvetleaf", "assay": "Test Example 5: herbicidal effect by foliage application, plastic box (Table 20, symbol M)", "format": "in vivo, velvetleaf (Abutilon theophrasti)", "conditions": "foliage application, 320 g/ha, three weeks after application", "in_short": "as §1"}, "persian speedwell": {"tested_on": "persian speedwell", "assay": "Test Example 5: herbicidal effect by foliage application, plastic box (Table 20, symbol R)", "format": "in vivo, Persian speedwell (Veronica persica)", "conditions": "foliage application, 320 g/ha, three weeks after application", "in_short": "as §1"}, "southern crabgrass": {"tested_on": "southern crabgrass", "assay": "Test Example 5: herbicidal effect by foliage application, plastic box (Table 20, symbol F)", "format": "in vivo, southern crabgrass (Digitaria ciliaris)", "conditions": "foliage application, 320 g/ha, three weeks after application", "in_short": "as §1"}, "lambsquarters": {"tested_on": "lambsquarters", "assay": "Test Example 5: herbicidal effect by foliage application, plastic box (Table 20, symbol O)", "format": "in vivo, lambsquarters (Chenopodium album)", "conditions": "foliage application, 320 g/ha, three weeks after application", "in_short": "as §1"}, "wild oat": {"tested_on": "wild oat", "assay": "Test Example 5: herbicidal effect by foliage application, plastic box (Table 20, symbol I)", "format": "in vivo, wild oat (Avena fatua)", "conditions": "foliage application, 320 g/ha, three weeks after application", "in_short": "as §1"}, "windgrass": {"tested_on": "windgrass", "assay": "Test Example 5: herbicidal effect by foliage application, plastic box (Table 20, symbol L)", "format": "in vivo, windgrass (Apera spica-venti)", "conditions": "foliage application, 320 g/ha, three weeks after application", "in_short": "as §1"}, "oval-leafed pondweed": {"tested_on": "oval-leafed pondweed", "assay": "Test Example 1: herbicidal activity, application before weed generation under submerged conditions (Table 16, symbol C)", "format": "in vivo, oval-leafed pondweed (Monochoria vaginalis)", "conditions": "320 g/ha applied herbicide", "in_short": "(§2)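 Submerged Wagner pots (alluvial soil, 4 cm water) sown with weed seeds and planted with 2.5-leaf rice seedlings; emulsifiable concentrate diluted in water applied to water surface on sowing day. Held in greenhouse at 25-30 °C; injury scored 0-5 by herbicidal rate after three weeks.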"}, "rice flat sedge": {"tested_on": "rice flat sedge", "assay": "Test Example 3: herbicidal effect by foliage application, Wagner pot (Table 18, symbol E)", "format": "in vivo, rice flat sedge (Cyperus iria)", "conditions": "320 g/ha", "in_short": "(§3)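 Plants were sown in alluvial soil held under 0.1–0.5 cm standing water and grown 14 days in a greenhouse at 25–30 °C. An emulsifiable formulation, water-diluted to the set dose, was then sprayed onto the foliage, and effects were scored three weeks later using previously defined criteria.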"}, "Chinese sprangletop": {"tested_on": "Chinese sprangletop", "assay": "Test Example 3: herbicidal effect by foliage application, Wagner pot (Table 18, symbol D)", "format": "in vivo, chinese sprangletop (Leptochloa chinensis)", "conditions": "320 g/ha", "in_short": "as §3"}, "barnyard grass [2]": {"tested_on": "barnyard grass", "assay": "Test Example 3: herbicidal effect by foliage application, Wagner pot (Table 18, symbol H)", "format": "in vivo, barnyard grass (Echinochloa crus-galli)", "conditions": "320 g/ha", "in_short": "as §3"}, "green foxtail": {"tested_on": "green foxtail", "assay": "Test Example 5: herbicidal effect by foliage application, plastic box (Table 20, symbol G)", "format": "in vivo, green foxtail (Setaria viridis)", "conditions": "foliage application, 320 g/ha, three weeks after application", "in_short": "as §1"}, "late watergrass": {"tested_on": "late watergrass", "assay": "Test Example 1: herbicidal activity, application before weed generation under submerged conditions (Table 16, symbol A)", "format": "in vivo, late watergrass (Echinochloa oryzicola)", "conditions": "320 g/ha applied herbicide", "in_short": "as §2"}, "Japanese bulrush": {"tested_on": "Japanese bulrush", "assay": "Test Example 1: herbicidal activity, application before weed generation under submerged conditions (Table 16, symbol B)", "format": "in vivo, Japanese bulrush (Schoenoplectus juncoides)", "conditions": "320 g/ha applied herbicide", "in_short": "as §2"}, "false cleavers": {"tested_on": "false cleavers", "assay": "Test Example 5: herbicidal effect by foliage application, plastic box (Table 20, symbol Q)", "format": "in vivo, false cleavers (Galium spurium)", "conditions": "foliage application, 320 g/ha, three weeks after application", "in_short": "as §1"}, "Italian ryegrass": {"tested_on": "Italian ryegrass", "assay": "Test Example 5: herbicidal effect by foliage application, plastic box (Table 20, symbol K)", "format": "in vivo, Italian ryegrass (Lolium multiflorum)", "conditions": "foliage application, 320 g/ha, three weeks after application", "in_short": "as §1"}},
  "data": [
    {"smiles": "COc1ccc(-c2sc3ccccc3c2-c2c(O)c(C)nn(C)c2=O)c(OC)c1", "note": "[1-070]", "values": [
      {"measurement": "herbicidal effect grade, H: barnyard grass", "setting": "barnyard grass [1]", "value": "0 (Herbicidal rate of 5% or less (almost no effect))"},
      {"measurement": "herbicidal effect grade, P: chickweed", "setting": "chickweed", "value": "5 (Herbicidal rate of 90% or more (almost completely withered))"},
      {"measurement": "herbicidal effect grade, J: blackgrass", "setting": "blackgrass", "value": "0 (Herbicidal rate of 5% or less (almost no effect))"},
      {"measurement": "herbicidal effect grade, M: velvetleaf", "setting": "velvetleaf", "value": "2 (Herbicidal rate of 20% or more and less than 40%)"},
      {"measurement": "herbicidal effect grade, R: persian speedwell", "setting": "persian speedwell", "value": "4 (Herbicidal rate of 70% or more and less than 90%)"},
      {"measurement": "herbicidal effect grade, F: southern crabgrass", "setting": "southern crabgrass", "value": "3 (Herbicidal rate of 40% or more and less than 70%)"},
      {"measurement": "herbicidal effect grade, O: lambsquarters", "setting": "lambsquarters", "value": "0 (Herbicidal rate of 5% or less (almost no effect))"},
      {"measurement": "herbicidal effect grade, I: wild oat", "setting": "wild oat", "value": "1 (Herbicidal rate of 5% or more and less than 20%)"},
      {"measurement": "herbicidal effect grade, L: windgrass", "setting": "windgrass", "value": "3 (Herbicidal rate of 40% or more and less than 70%)"},
      {"measurement": "Herbicidal effect on C: oval-leafed pondweed (grade 0-5)", "setting": "oval-leafed pondweed", "value": "1 (Herbicidal rate of 5% or more and less than 20%)"},
      {"measurement": "herbicidal effect on E (rice flat sedge), rating 0-5", "setting": "rice flat sedge", "value": "3 (Herbicidal rate of 40% or more and less than 70%)"},
      {"measurement": "herbicidal effect on D (Chinese sprangletop), rating 0-5", "setting": "Chinese sprangletop", "value": "0 (Herbicidal rate of 5% or less (almost no effect))"},
      {"measurement": "herbicidal effect on H (barnyard grass), rating 0-5", "setting": "barnyard grass [2]", "value": "1 (Herbicidal rate of 5% or more and less than 20%)"},
      {"measurement": "herbicidal effect grade, G: green foxtail", "setting": "green foxtail", "value": "3 (Herbicidal rate of 40% or more and less than 70%)"},
      {"measurement": "Herbicidal effect on A: late watergrass (grade 0-5)", "setting": "late watergrass", "value": "3 (Herbicidal rate of 40% or more and less than 70%)"},
      {"measurement": "Herbicidal effect on B: Japanese bulrush (grade 0-5)", "setting": "Japanese bulrush", "value": "3 (Herbicidal rate of 40% or more and less than 70%)"},
      {"measurement": "herbicidal effect grade, Q: false cleavers", "setting": "false cleavers", "value": "2 (Herbicidal rate of 20% or more and less than 40%)"},
      {"measurement": "herbicidal effect grade, K: Italian ryegrass", "setting": "Italian ryegrass", "value": "1 (Herbicidal rate of 5% or more and less than 20%)"}
    ]}
  ]
}
